One data set deals with Hep G2 cells. Put plainly: MTT assay, proliferation of Hep G2 cells. Type of data set: cell-based. The settings on record: Homo sapiens, HepG2, 48 h, read-out: In vitro cytotoxicity (IC50) Hep G2. The protocol:
(§1) The in vitro antitumor activities of the synthesized compounds 7a-l and 8a-l against five human cancer cells were evaluated in MTT assays using 5-fluorouracil (5-FU) and harmine as positive controls. These cells are human hepatocellular carcinoma cells (SMMC-7721 and Hep G2), human colon cancer cell lines (HCT116), human bladder carcinoma cells (EJ), and human lung cancer cells (H460).
(§2) Hepatocellular carcinoma cells (SMMC-7721 and Hep G2), Human colon cancer cell lines (HCT116), human bladder carcinoma cells (EJ) or human lung cancer cells (H460) at 10^4 cells per well were cultured in 10% FBS DMEM in 96-well flat-bottom microplates overnight. The cells were incubated in triplicate with, or without, different concentrations of each test compound for 48 h. During the last 4 h incubation, 30 μL of tetrazolium dye (MTT) solution (5 mg mL^−1) was added to each well. The resulting MTT-formazan crystals were dissolved in 150 μL DMSO, and absorbance was measured spectrophotometrically at 570 nm using an ELISA plate reader. The inhibition induced by each test compound at the indicated concentrations was expressed as a percentage. The concentration required for 50% inhibition (IC50) was calculated using the software (GraphPadPrism Version 4.03).
In general terms: Tetrazolium dyes change colour on reduction, which living cells bring about.

The subject of another data set is HCT116 cells. The data set can be described thus: MTT assay, proliferation of HCT116 cells. The conditions noted are these: Homo sapiens, HCT-116, 48 h, read-out: In vitro cytotoxicity (IC50) HCT116. Type of data set: cell-based. As for the experimental part: as §1, §2
Data set [1] concerns human cancer cells (SMMC-7721, Hep G2, HCT116, EJ, H460). Put plainly: MTT assay, summary statements across several human cancer cell lines. In kind it is cell-based. The settings on record: Homo sapiens, MTT. As for the experimental part: as §1, §2
Data set [2] relates to SMMC-7721 cells. The data set can be described thus: MTT assay, proliferation of SMMC-7721 cells. In kind it is cell-based, human. As for the experimental part:
as §1, §2

The test system of data set [3] is SMMC-7721 cells. Put plainly: Flow cytometry assay of cell apoptosis (FITC-Annexin V/PI). Type of data set: cell-based, human. The conditions noted are these: 14 μM, 48 h. As for the experimental part: To determine whether apoptosis is involved in the anti-proliferative effects of 8h, apoptosis assay was performed using SMMC-7721 cells. The cells were incubated with either vehicle alone, different concentrations of 8h (7.0 or 14 μM), or 14 μM 5-FU for 48 h, and then stained with FITC-Annexin V and propidium iodide (PI). The percentages of apoptotic SMMC-7721 cells were determined by flow cytometry analysis. In the vehicle group, the occurrence of SMMC-7721 cell apoptosis was minimal. […] Low concentration of 8h (7.0 μM) induced 46% SMMC-7721 cell apoptosis, while the higher dose (14 μM) of 8h induced 63% SMMC-7721 cell apoptosis.
Figure 4 Compound 8h induced SMMC-7721 cell apoptosis in vitro. SMMC-7721 cells were incubated with the indicated concentrations of 8h and 14 μM 5-FU for 48 h, and the cells were stained with FITC-Annexin V and PI, followed by flow cytometry analysis. (A) Flow cytometry analysis. (B) Quantitative analysis of apoptotic cells. Data are expressed as means ± SD of the percentages of apoptotic cells from three independent experiments. *P < 0.01 vs control.
SMMC-7721 cells were cultured overnight and incubated in triplicate with compound 8h (7.0 and 14 μM), 5-FU (14 μM), or vehicle for 48 h. The cells were harvested, and stained with FITC-Annexin V and PI (BioVision) at room temperature for 15 min. The percentage of apoptotic cells was determined by flow cytometry (Beckman Coulter) analysis.
On the technique in general: A flow cytometer gives signals particle by particle.

In another data set the test system is LO2 cells. Put plainly: MTT assay, proliferation of normal liver LO2 cells. The conditions noted are these: 25 μM, 48 h, MTT assay. In kind it is cell-based, human. The protocol:
Given the strong growth inhibitory activity of 8h in vitro, it was profiled for antitumor selectivity by examining its inhibitory effects on the growth of SMMC-7721 cells and LO2 cells (human hepatocellular normal cells).
Figure 3 (A) Inhibitory effects of 8h on the proliferation of SMMC-7721 and LO2 cells. Cells were incubated with the indicated concentrations of 8h for 48 h. Cell proliferation was assessed using the MTT assay. Data are means ± SD of the inhibition (%) from three independent experiments. (B) Inhibitory effects of 5h, 8h, and SA or the vehicle control against SMMC-7721 and LO2 cells. SMMC-7721 and LO2 cells were incubated with the indicated compounds at 25 μM for 48 h, and cell proliferation was assessed by the MTT assay. Data are means ± SD of the inhibition (%) from three independent experiments. *P < 0.01 versus control of SMMC-7721, ^#P < 0.01 inhibitory effects of 8h in SMMC-7721 versus LO2 cells.
as §2

A further data set concerns H460 cells. The data set can be described thus: MTT assay, proliferation of H460 cells. The settings on record: NCI-H460, 48 h, H460 human lung cancer cells, read-out: In vitro cytotoxicity (IC50) H460. Type of data set: cell-based. The protocol:
as §1, §2

The next data set relates to EJ cells. The data set can be described thus: MTT assay, proliferation of EJ cells. In kind it is cell-based. The conditions noted are these: 48 h, EJ human bladder carcinoma cells, read-out: In vitro cytotoxicity (IC50) EJ. As for the experimental part: as §1, §2
Setting [4] is: cancer cell lines tested (SMMC-7721, Hep G2, HCT116), read-out: Antitumor activities (IC50) of capped analogs.
Where [5] appears, read: Homo sapiens, SMMC-7721, 48 h, read-out: In vitro cytotoxicity (IC50) SMMC-7721, MTT assay, 48 h, SMMC-7721 human hepatocellular carcinoma cells.

Each structure is given as a SMILES string. “Also recorded” adds a separate entry of the source. Where two headings read alike, the source gives them in different places.

In the case of `CC(=O)NCCCCCNC(=O)c1cc2c([nH]c3ccccc32)c(C)n1` [10a, N-(5-acetamidopentyl)-1-methyl-9H-pyrido[3,4-b]indole-3-carboxamide], the 50% inhibitory concentration (IC50) (commonly the concentration that gives 50% inhibition) in the data set on Hep G2 cells is over 50 µM; with HCT116 cells, over 50 µM; in data set [1] (setting [4]), over 50 µM; with SMMC-7721 cells [2] (setting [5]), 58.6 ± 6.7 µM; in the data set with SMMC-7721 cells [2] (human, 48 h) it was over 50 µM.

Consider `O=c1[nH]cc(F)c(=O)[nH]1` [5-FU, 5-fluorouracil, reference compound], for which the “SMMC-7721 cell apoptosis (percentage of apoptotic cells)” value with SMMC-7721 cells [3] worked out at 22%. In addition, the half-inhibitory concentration (IC50) was 35.2 µM with Hep G2 cells; 19.6 µM with HCT116 cells; 19.6 to 35.2 µM in data set [1] (SMMC-7721, Hep G2, HCT116, read-out: IC50 values for liver and colon cancer cells growth (range over cell lines)); 28.7 µM with SMMC-7721 cells [2] (setting [5]).

As to `Cc1nc(C(=O)NCCCCCNC(=O)c2ccccc2)cc2c1[nH]c1ccccc12` [10b, N-(5-benzamidopentyl)-1-methyl-9H-pyrido[3,4-b]indole-3-carboxamide], the concentration for half-maximal inhibition (IC50) with Hep G2 cells is over 50 µM; in the data set with HCT116 cells, over 50 µM; in data set [1] (setting [4]), over 50 µM; in the data set with SMMC-7721 cells [2] (setting [5]), over 100 µM; with SMMC-7721 cells [2] (human, 48 h), over 50 µM.

Take `Cc1nc(C(=O)NCCCCCN)cc2c1[nH]c1ccccc12` [5h, N-(5-Aminopentyl)-1-methyl-9H-pyrido[3,4-b]indole-3-carboxamide]: the “Inhibitory effect on LO2 cells” value in the data set with LO2 cells is given as “a similar effect was seen in the non-tumor LO2 cells; also recorded: high toxicities”. The half-maximal inhibitory concentration (IC50) in the data set on SMMC-7721 cells [2] (setting [5]) worked out at 27.2 ± 3.4 µM. In the data set with SMMC-7721 cells [2] (Homo sapiens, SMMC-7721, 25 μM, 48 h, MTT assay, read-out: Inhibition of SMMC-7721 cell proliferation), the inhibition at 25 µM was about 42%.

In the case of `COc1ccc(-c2nc(C(=O)NCCCCNC(=O)c3ccccc3O)cc3c2[nH]c2ccccc23)cc1` [8f, N-(4-(2-Hydroxybenzamido)butyl)-1-(4-methoxyphenyl)-9H-pyrido[3,4-b]indole-3-carboxamide], the IC50 with H460 cells is 22.8 µM; in the data set with Hep G2 cells, 17.7 µM; in the data set with HCT116 cells, 18.2 µM; in the data set with EJ cells, 15 µM; in the data set with SMMC-7721 cells [2] (setting [5]), 20.1 µM.

As to `Cc1ccccc1C(=O)NCCCCCCNC(=O)c1cc2c([nH]c3ccccc32)c(C)n1` [7k, 1-Methyl-N-(6-(2-methylbenzamido)hexyl)-9H-pyrido[3,4-b]indole-3-carboxamide], the 50% inhibitory concentration (IC50) with H460 cells is 14.3 µM; with Hep G2 cells it was 16.9 µM; in the data set with HCT116 cells, 15.3 µM; in the data set with EJ cells it was 13.7 µM; in the data set on SMMC-7721 cells [2] (setting [5]) it was 11.3 µM.

In the case of `COc1ccc(-c2nc(C(=O)NCCCCCNC(=O)c3ccccc3O)cc3c2[nH]c2ccccc23)cc1` [8i, N-(5-(2-Hydroxybenzamido)pentyl)-1-(4-methoxyphenyl)-9H-pyrido[3,4-b]indole-3-carboxamide], the half-inhibitory concentration (IC50) with H460 cells is 38.5 µM; in the data set with Hep G2 cells it was 30.8 µM; in the data set on HCT116 cells it was over 50 µM; in the data set on EJ cells, over 50 µM; in the data set on SMMC-7721 cells [2] (setting [5]), 46.8 µM.

As for `Cc1ccccc1C(=O)NCCCCCCNC(=O)c1cc2c(cn1)[nH]c1ccccc12` [7j, N-(6-(2-Methylbenzamido)hexyl)-9H-pyrido[3,4-b]indole-3-carboxamide], the IC50 in the data set with H460 cells came out at 15.3 µM; in the data set with Hep G2 cells it was 28 µM; in the data set on HCT116 cells, 26.6 µM; with EJ cells, 18.2 µM; in the data set on SMMC-7721 cells [2] (setting [5]) it was 23.3 µM.

Turning to `Cc1ccccc1C(=O)NCCCCNC(=O)c1cc2c([nH]c3ccccc32)c(C)n1` [7e, 1-Methyl-N-(4-(2-methylbenzamido)butyl)-9H-pyrido[3,4-b]indole-3-carboxamide], the IC50 was 20.1 µM in the data set on H460 cells; 15.2 µM in the data set on Hep G2 cells; 14.8 µM in the data set with HCT116 cells; 13.3 µM with EJ cells; 17.8 µM in the data set on SMMC-7721 cells [2] (setting [5]).

(Values after paper PMC5099944, “Design, synthesis and biological evaluation of hybrids of β-carboline and salicylic acid as potential anticancer and apoptosis inducing agents” (Scientific Reports, 2016).)
